What was measured:
[1] = system: T cell lines primed in vitro with Der p II; test: T cell proliferation with fine map and modified Group II peptides (Example XIV); format: cell-based, human; conditions: for positive T cell responses, modified peptides: 21 T cell lines, Der p II primed, FIG. 32a; for T cell response, Group II peptides: FIGS. 32a-b
Procedure: (§1) Long term T cell lines were established by stimulation of 2×10^6 PBL/ml in bulk cultures of complete medium (RPMI-1640, 2 mM L-glutamine, 100 U/ml penicillin/streptomycin, 5×10^-5 M 2-mercaptoethanol, and 10 mM HEPES supplemented with 5% heat inactivated human AB serum) with 30 μg/ml of purified native Der p I or Der p II for 5-6 days at 37° C. in a humidified 5% CO2 incubator to select for house dust mite protein allergen reactive T cells. This amount of priming antigen was determined to be optimal for the activation of T cells from house dust mite allergic patients. Viable cells were purified by LSM centrifugation and cultured in complete medium supplemented with 5 units recombinant human IL-2/ml and 5 units recombinant human IL-4/ml for up to three weeks until the cells no longer responded to lymphokines and were considered "rested". The ability of the T cells to proliferate to selected peptides, purified Der p I or Der p II, or positive (PHA) controls or negative controls (medium only) was then assessed. For assay, 2×10^4 rested cells were restimulated in the presence of 2×10^4 autologous Epstein-Barr virus (EBV)-transformed B cells (prepared as described below) (gamma-irradiated with 25,000 RADS) or with 5×10^4 autologous PBMs (gamma-irradiated with 3500 RADS), with 2-50 μg/ml of purified native Der p I or Der p II in a volume of 200 μl complete medium in duplicate or triplicate wells in 96-well round bottom plates for 3 days. Each well then received 1 μCi tritiated thymidine for 16-20 hours. The counts incorporated were collected onto glass fiber filter mats and processed for liquid scintillation counting. […] The titrations were used to optimize the dose of peptides in T cell assays.
(§2) The maximum response in a titration of each peptide is expressed as the stimulation index (S.I.). The S.I. is the counts per minute (CPM) incorporated by cells in response to peptide, divided by the CPM incorporated by cells in medium only. […] The positive results were used in calculating mean stimulation indices for each peptide for the individual patient tested.
(§3) The above procedure was followed with 18 patients in the studies using peptides derived from Der p I and Der f I (FIGS. 31a-b), and 21 patients in the studies with Der p II peptides (FIGS. 32a-b). Individual patient results were used in calculating the mean S.I. for each peptide if the patient responded to the Der p I or Der p II protein at an S.I. of 2.0 or greater and the patient responded to at least one peptide derived from a house dust mite allergen at an S.I. f 2.0 or greater. A summary of positive experiments from the patients tested is shown in FIGS. 32a and 32b and FIGS. 33a and 33b. The bars represent the positivity index. […] In parenthesis above each bar are the mean stimulation indices for each peptide or protein for the group of patients tested.
(§4) Autologous EBV-transformed cell lines were γ-irradiated with 25,000 Rad and used as antigen presenting cells in secondary proliferation assays and secondary bulk stimulations. These EBV-transformed cell lines were made by incubating 5×10^6 PBL with 1 ml of B-59/8 Marmoset cell line (ATCC CRL1612, American Type Culture Collection, Rockville, Md.) conditioned medium in the presence of 1 μg/ml phorbol 12-myristate 13-acetate (PMA) at 37° C. for 60 minutes in 12×75 mm polypropylene round-bottom Falcon snap cap tubes (Becton Dickinson Labware, Lincoln Park, N.J.). These cells were then diluted to 1.25×10^6 cells/ml in RPMI-1640 as described above except supplemented with 10% heat-inactivated fetal bovine serum and cultured in 200 μl aliquots in flat bottom culture plates until visible colonies were detected. They were then transferred to larger wells until the cell lines were established.

[2] = system: human IgE; test: direct binding ELISA of IgE to mite allergen proteins and peptides; conditions: plasma of 19 mite-allergic patients and pool of 18; Example XV
Procedure: The coating antigens were removed and the wells are blocked with 0.5% gelatin in PBS, 300 μl/well for 2 hours at room temperature. Pooled human plasma (a mix of plasma samples from 20 patients that were skin test positive for commerical mite extract) was serially diluted with PBS-Tween 20 (PBS with 0.05% nonionic detergent Tween-20 Sigma, St. Louis, Mo.) and 100 μl/well a.backslash.was added and incubated overnight at 4° C. (plasma dilutions were tested in duplicate). The second antibody (biotinylated goat anti-Human IgE, 1:1000, Kirkegaard & Perry Laboratories Inc, Gaithersburg, Md.), was added at 100 μl/well for one hour at room temperature. This solution was removed and streptavidin-HRPO, 1:10000, (Southern Biotechnology Associates, Inc., Birmingham, Ala.) was then added at 100 μl/well for one hour at room temperature (all wells are washed three times with PBS-Tween between each incubation step). TMB Membrane Peroxidase Substrate system (Kirkegaard & Perry Laboratories) was freshly miced, and added at […]. The color was allowed to develop for 2-5 minutes. The reaction was stopped by the addition of […] of 1M phosphoric acid. Plates were read on a Microplate IL310 Autoreader (Biotech Instruments, Winooski, Vt.) with a 450 nm filter. The absorbance levels of duplicate wells were averaged. The order of coating antigens listed vertically in these figure legends corresponds in orDer from left to right to the coating antigens listed for each histogram.
The antigen preparation that was used as a positive control was a mixture of the four major biochemically purified mite allergens (term PMA for Purified Mite Allergen); Der f I, Der f II, Der p I and Der p II. The stock was generated at a concentration of 100 μgs of each protein per millimeter or 400 μgs total protein/ml. This preparation was used on each coated ELISA plate.

[3] = system: T cell lines primed in vitro with Der p I; test: T cell proliferation with fine map and modified Group I peptides (Example XIV); format: cell-based, human; conditions: FIGS. 31a-b
Procedure: as §1, §2, §3, §4

[4] = system: T cell lines primed in vitro to Der p I; test: secondary proliferation of Der p I-primed T cell lines (Examples V, VII, XI); format: cell-based, human; conditions: for T cell response to selected Der p I peptides: 33 positive experiments, FIG. 13; for positivity index (P.I.): mean S.I. × percent responders, 33 patients
Procedure: 10^7 PBMC from individual 543 were cultured in 10 ml RPMI-1640 containing 5% pooled human AB serum and supplemented with glutamine, penicillin, streptomycin and HEPES buffer in the presence of 20 μg/ml purified native Der p I/ml at 37° C. for 7 days. Viable cells were then purified by Ficoll-Hypaque centrifugation and cultured for 2 additional weeks in RPMI-1640/5% AB serum containing 5 units recombinant human IL-2/ml and 5 units recombinant human IL-4/ml. The resting T cells were then tested in a secondary proliferation assay to assess T cell responses to various house dust mite proteins and peptides. For assay, 2×10^4 resting T cells were cultured in 200 μl of RPMI-1640/5% AB serum for 3 days at 37° C. in the presence of 2×10^4 autologous Epstein-Barr virus transformed B cells (20,000 Rads) as antigen presenting cells with various concentrations of purified native Der p I or synthetic Der p I peptides. Each well then received 1 μCi tritiated thymidine for 16 hours. The counts incorporated were collected onto glass fiber filters and processed for liquid scintillation counting. Medium alone, acting as negative control, contained no allergen or peptide. The results of this experiment indicate that this particular patient responds with an S.I. of at least 2.0 to several peptides derived from the Der p I protein, including DP I-1, DP I-2, DP I-4, DP I-11, DP I-5, DP I-13, DP I-15, DP I-6.1, DP I-8, DP I-9, DP I-16, DP I-10 and DP I-17 (data not shown).
The above procedure was followed with a number of other house dust mite allergic individuals except a) in individual cases, the length of time of cultivation with IL-2 and IL-4 varied; b) in individual cases, the T cells were primed with either purified native (N) or recombinant (R) Der p I protein at either 20 μg/ml or 10 μg/ml; and c) in individual cases, x-irradiated (3500 Rads) autologous PBMC were used as antigen presenting cells in the secondary proliferation assay.
Individual results were considered positive and used if the individual responded to the Der p I protein and at least one peptide derived from Der p I at an S.I. of 2.0 or greater. The resting T cell lines primed with recombinant or native Der p I-stimulated PBMC were tested for reactivity to synthetic Der p I peptides. The maximum response for each peptide in a titration of the antigen is expressed as the T cell stimulation index (S.I.). The S.I. is the counts-per-minute (CPM) incorporated by cells in response to the peptide divided by the CPM incorporated by cells in medium only. […] However, only individual S.I. values greater than or equal to 2.0 (a response two-fold or greater over background), referred to herein as "positive" results, were used in calculating mean T cell stimulation indices for each peptide for the patient or group of patients tested. […] The T cell stimulation index is calculated by: [formula]
The bar represents the cumulative rank of the peptide response in the group of patients. To determine the cumulative rank, the 5 peptides with the highest S.I. in each individual were determined and assigned a numerical rank in descending order, with 5 representing the strongest response. The ranks for each peptide were then summed in the group of patients to determine the cumulative rank for the peptide. […] Given the percent positive and the mean T cell stimulation index, the positivity index (P.I.) for each peptide can be calculated.
The Der p I and Der f I proteins are very homologous (81% identity). Thus, experiments, similar to those of Example V, were carried out to determine the T cell responses of Der p I primed T cell lines when challenged with various Der p I peptides and substantially matching […].
The results of T cell studies using selected peptides derived from the Der p I, the Der f I, the Der p II and the Der f II proteins are shown in FIGS. 13-18a-d. […]

DP II-25.9: modified Der p II peptide (DKTVKVMGDDGVLACAIATHAKIRDKE)
positive T cell responses, modified peptides [1]: all 21 T cell lines responded positively | T cell response, Group II peptides [1]: positive T cell studies | IgE binding (ELISA), modified peptides [2]: No plasma samples contained IgE

DP II-22.19: DKELEAVFEANQNTKTAKIEIKAD
positive T cell responses, modified peptides [1]: all 21 T cell lines responded positively | T cell response, Group II peptides [1]: positive T cell studies | IgE binding (ELISA), modified peptides [2]: No plasma samples contained IgE

DP I-22.4: Der p I peptide (VAATESAYLAHRNQSLDLAEQELVDCASQ)
T cell response, Group I peptides [3]: positive responses

DP II-20.11: modified Der p II peptide; printed with the same SEQ ID NO as DP II-20.9 (DQVDVKDCANHEIKKVLVPGCHGSE)
positive T cell responses, modified peptides [1]: all 21 T cell lines responded positively | T cell response, Group II peptides [1]: positive T cell studies | IgE binding (ELISA), modified peptides [2]: No plasma samples contained IgE

DP II-20.8: modified Der p II peptide (DQVDVKDCANHEIKKVLVPGCHGSEPK)
positive T cell responses, modified peptides [1]: all 21 T cell lines responded positively | IgE binding (ELISA), modified peptides [2]: No plasma samples contained IgE

DP I-23.1: Der p I peptide (EYIQHNGVVQESYYRYVAREQCRRPNAQ)
T cell response, Group I peptides [3]: positive T cell studies | T cell response to selected Der p I peptides [4]: respond significantly | ranked sum of peptide responses ([4]; FIG. 15b, preferred peptides): highest ranked sum | positivity index (P.I.) [4]: at least 150

DP I-21.1: Der p I peptide (TNACSINGNAPAEIDLRQMRTVTPIRMQ)
T cell response, Group I peptides [3]: positive response | T cell response to selected Der p I peptides [4]: respond significantly | positivity index (P.I.) [4]: at least 150

DP I-26.1: Der p I peptide (IIGIKDLDAFRHYDGRTIIQRDNGYQ)
T cell response, Group I peptides [3]: positive T cell studies | T cell response to selected Der p I peptides [4]: respond significantly | positivity index (P.I.) [4]: at least 150

DF I-22.4: Der f I peptide (VAATESAYLAYRNTSLDLSEQELVDCASQ)
T cell response, Group I peptides [3]: positive responses | T cell response to selected Der f I peptides ([4]; Der p I primed, 30 positive experiments, FIG. 15a): respond significantly

DP II-22.22: DKELEAVFEANQNTKTAKIEIKK
positive T cell responses, modified peptides [1]: all 21 T cell lines responded positively | T cell response, Group II peptides [1]: positive T cell studies | IgE binding (ELISA), modified peptides [2]: No plasma samples contained IgE

DP II-20.10: modified Der p II peptide (DQVDVKDCANHEIKKVLVPGCHGSEG)
positive T cell responses, modified peptides [1]: all 21 T cell lines responded positively | T cell response, Group II peptides [1]: positive T cell studies | IgE binding (ELISA), modified peptides [2]: No plasma samples contained IgE

DP II-22.23: DKELEAVFEANQNTKTAKIED
positive T cell responses, modified peptides [1]: all 21 T cell lines responded positively | T cell response, Group II peptides [1]: positive T cell studies | IgE binding (ELISA), modified peptides [2]: No plasma samples contained IgE
